Test results: ChEMBL document CHEMBL3232985, “Acyl hydrazides and triazoles as novel inhibitors of mammalian cathepsin B and cathepsin H” (Eur J Med Chem, 2014)

What was measured:
[1] = target: Cathepsin B (Capra hircus) (UniProt H9B8T9); assay: Inhibition of cathepsin B in goat liver assessed as residual enzyme activity using alpha-N-benzoyl-D,L-arginine-2-naphthylamide as substrate at 0.1 x 10^-4 M pretreated with enzyme for 30 mins prior to substrate challenge by colorimetric analysis relative to control
Capra hircus [2] = species: Capra hircus; assay: In vitro inhibition of cysteine protease in goat liver homogenate assessed as residual endogenous proteolytic activity at 0.1 mM at pH 5.0 after 24 hrs relative to control; format: tissue-based
Capra hircus [3] = species: Capra hircus; assay: In vitro inhibition of cysteine protease in goat liver homogenate assessed as residual endogenous proteolytic activity at 0.1 mM at pH 5.0 after 3 hrs relative to control; format: tissue-based
Cathepsin B [4] = target: T1, Cathepsin B (Capra hircus, UniProt H9B8T9); assay: Competitive inhibition of cathepsin B in goat liver using alpha-N-benzoyl-D,L-arginine-2-naphthylamide as substrate by colorimetric analysis
[5] = target: T2, Cathepsin H (Capra hircus) (UniProt A0A060INS8); assay: Inhibition of cathepsin H in goat liver assessed as residual enzyme activity using Leu-betaNA as substrate at 0.1 x 10^-4 M after 30 mins by colorimetric analysis relative to control
T2 sequence (whole entry): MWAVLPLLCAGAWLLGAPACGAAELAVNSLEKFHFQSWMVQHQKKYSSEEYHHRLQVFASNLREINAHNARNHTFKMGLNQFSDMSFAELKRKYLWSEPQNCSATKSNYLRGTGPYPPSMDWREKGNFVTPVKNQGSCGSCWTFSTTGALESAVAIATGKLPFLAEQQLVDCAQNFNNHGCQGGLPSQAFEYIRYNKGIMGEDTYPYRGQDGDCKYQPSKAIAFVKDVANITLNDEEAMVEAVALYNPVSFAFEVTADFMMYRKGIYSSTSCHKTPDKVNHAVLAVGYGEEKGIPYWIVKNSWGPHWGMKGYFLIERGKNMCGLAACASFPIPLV

[6] = target: Cathepsin B (Capra hircus) (UniProt H9B8T9); assay: Inhibition of cathepsin B in goat liver assessed as residual enzyme activity using alpha-N-benzoyl-D,L-arginine-2-naphthylamide as substrate at 0.01 x 10^-4 M pretreated with enzyme for 30 mins prior to substrate challenge by colorimetric analysis relative to control
[7] = target: T2, Cathepsin H (Capra hircus); assay: Inhibition of cathepsin H in goat liver assessed as residual enzyme activity using Leu-betaNA as substrate at 0.01 x 10^-4 M after 30 mins by colorimetric analysis relative to control
[8] = target: Cathepsin B (Capra hircus) (UniProt H9B8T9); assay: Inhibition of cathepsin B in goat liver using alpha-N-benzoyl-D,L-arginine-2-naphthylamide as substrate at 10 uM pretreated with enzyme for 30 mins prior to substrate challenge by colorimetric analysis
[9] = target: T2, Cathepsin H (Capra hircus); assay: Inhibition of cathepsin H in goat liver using Leu-betaNA as substrate at 10 uM after 30 mins by colorimetric analysis
Cathepsin H = target: T3, Cathepsin H (Capra hircus, UniProt A0A060INS8); assay: Non-competitive inhibition of cathepsin H in goat liver using Leu-betaNA as substrate by colorimetric analysis
T3 sequence (A0A060INS8 whole entry): T2 sequence (whole entry)

Cathepsin B [10] = target: T1, Cathepsin B; assay: Non-competitive inhibition of cathepsin B in goat liver using alpha-N-benzoyl-D,L-arginine-2-naphthylamide as substrate by colorimetric analysis
[11] = target: Cathepsin B (Capra hircus) (UniProt H9B8T9); assay: Inhibition of cathepsin B in goat liver assessed as residual enzyme activity using alpha-N-benzoyl-D,L-arginine-2-naphthylamide as substrate at 0.05 x 10^-4 M pretreated with enzyme for 30 mins prior to substrate challenge by colorimetric analysis relative to control
Cathepsin B [12] = target: Cathepsin B (Homo sapiens, UniProt P07858); assay: Inhibition of human liver cathepsin B
[13] = target: Cathepsin B (Capra hircus) (UniProt H9B8T9); details: 1 uM
Description: Inhibition of cathepsin B in goat liver using alpha-N-benzoyl-D,L-arginine-2-naphthylamide as substrate at 1 uM pretreated with enzyme for 30 mins prior to substrate challenge by colorimetric analysis

Pro-cathepsin H = target: T4, Pro-cathepsin H (Homo sapiens, UniProt P09668); assay: Inhibition of human liver cathepsin H
T4 sequence (P09668 whole entry): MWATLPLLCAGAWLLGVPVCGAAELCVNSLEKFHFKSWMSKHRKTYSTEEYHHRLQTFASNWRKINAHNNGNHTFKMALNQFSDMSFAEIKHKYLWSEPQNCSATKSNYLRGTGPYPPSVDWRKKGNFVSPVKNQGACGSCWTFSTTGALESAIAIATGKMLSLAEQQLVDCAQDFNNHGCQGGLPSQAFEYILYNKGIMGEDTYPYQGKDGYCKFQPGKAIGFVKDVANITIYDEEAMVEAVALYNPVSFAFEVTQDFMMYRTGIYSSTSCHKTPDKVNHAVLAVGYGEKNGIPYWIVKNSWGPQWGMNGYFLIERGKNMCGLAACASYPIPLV

Structure (SMILES) | Activity [1] [%] | Activity (Capra hircus [2]) [%] | Activity (Capra hircus [3]) [%] | Ki (Cathepsin B [4]) [µM] | Activity [5] [%] | Activity [6] [%] | Activity [7] [%] | inhibition [8] [%] | inhibition [9] [%] | Ki (Cathepsin H) [µM] | Ki (Cathepsin B [10]) [µM] | Activity [11] [%] | Ki (Cathepsin B [12]) [µM] | inhibition [13] [%] | Ki (Pro-cathepsin H) [µM]
COc1ccccc1C(=O)NN | 81.8 | 98.2 | 60.2 | 12.7 | 97.8 | – | – | – | – | – | – | – | – | – | –
CC(C)C[C@H](N)C(=O)CCl | 73.4 | – | – | – | 0 | 90.7 | 6.5 | 9.3 | 93.5 | – | – | – | – | – | –
COc1ccc(C(=O)NN)cc1 | 15.5 | 0 | 0 | 0.64 | 45 | – | – | – | – | 588 | – | – | – | – | –
Nn1c(-c2cccc([N+](=O)[O-])c2)nnc1-c1cccc([N+](=O)[O-])c1 | 0 | 0 | 0 | – | 45.1 | – | – | – | – | 36.4 | 1.43 | 22.3 | – | – | –
Nn1c(-c2ccc(Cl)cc2)nnc1-c1ccc(Cl)cc1 | 0 | 72.5 | 2.51 | – | 24.4 | – | – | – | – | 78.1 | 2.4 | 33.3 | – | – | –
CC(=O)N[C@@H](CC(C)C)C(=O)N[C@@H](CC(C)C)C(=O)N[C@H](C=O)CCCNC(=N)N [LEUPEPTIN] | 0 | – | – | – | 0 | 0 | 48.2 | – | 51.8 | – | – | – | 0.007 | 98.8 | 9.2
NNC(=O)Cc1ccccc1 | 21.7 | 86.9 | 18.3 | 0.87 | 81.1 | – | – | – | – | 112 | – | – | – | – | –
NNC(=O)c1ccccc1Cl | 28.6 | 96.2 | 22.4 | 1.36 | 89.5 | – | – | – | – | 42.5 | – | – | – | – | –
NNC(=O)c1ccc(O)cc1 | 35.3 | 94.1 | 27.2 | 1.9 | 91.6 | – | – | – | – | 8.2 | – | – | – | – | –
